Where two headings read alike, the source gives them in different places.
Assays:
[1] = target: T1, NMDA glutamate receptors NR1/NR2B encoded by the human GRIN1 and GRIN2B genes (Homo sapiens, UniProt Q05586+Q13224); assay: IonWorks Barracuda automated patch clamp, inhibition of NR1/NR2B receptors in HEK293 cells; type: cell-based; settings: for IC50: co-application with EC50 L-glutamate, −40 mV, 8-point concentration-response; for Effect on NR1/NR2B glutamate receptors (in words): patch clamp
T1 construct: expressed in transfected cells
Method: Compounds were tested for inhibition of NMDA receptors using NMDA glutamate receptors NR1/NR2B encoded by the human GRIN1 and GRIN2B genes, expressed in HEK293 cells (originally from ATCC, Manassas, VA). Cells were maintained in tissue culture incubators, and stocks were maintained in cryogenic storage. Cells used for electrophysiology were plated in 150-mm plastic culture dishes. HEK293 cells were transfected with the appropriate ion channel or receptor cDNA(s) encoding NR1 and NR2B. Stable transfectants were selected using the G418 and Zeocin™-resistance genes incorporated into the expression plasmid. Selection pressure was maintained with G418 and Zeocin™ in the culture medium. Cells were cultured in Dulbecco's Modified Eagle Medium/Nutrient Mixture F-12 (D-MEM/F-12) supplemented with 10% fetal bovine serum, 100 U/mL penicillin G sodium, 100 μg/mL streptomycin sulfate, 100 μg/mL Zeocin™, 5 μg/mL blasticidin, and 500 μg/mL G418.
Test compounds were evaluated in 8-point concentration-response format (8 replicate wells/concentration). All test and control solutions contained 0.3% DMSO. The test article formulations were loaded in a 384-well plate using an automated liquid handling system (SciClone ALH3000, Caliper LifeScienses).
The effects of the test compounds were evaluated using the IonWorks® Barracuda™ Automated Patch Clamp System. Intracellular solution contained 50 mM CsCl, 90 mM CsF, 2 mM MgCl2, 5 mM EGTA, and 10 mM HEPES, pH 7.2. This solution was prepared in batches and stored refrigerated. In preparation for a recording session, the intracellular solution was loaded into the intracellular compartment of the PPC planar electrode. Extracellular solution (137 mM NaCl; 1.0 mM KCl; 5 mM CaCl2); 10 mM HEPES; 10 mM glucose; pH 7.4. Patch clamp measurements were made with a holding potential of −70 mV, and the potential during compound application was −40 mV. Extracellular buffer was loaded into the PPC plate wells (11 μL per well). Cell suspension was then pipetted into the wells (9 μL per well) of the PPC planar electrode. Whole-cell recording configuration was established via patch perforation with membrane currents recorded by on-board patch clamp amplifiers. […] The application consisted of two additions of 20 μL test solution containing antagonists at 10 μL/s (2 second total application time). First addition of 2× concentrated articles were preapplied for 5 minutes before the second addition of 1× concentrated articles. Data acquisition was performed via the IonWorks® Barracuda™ software, and data was analyzed using Microsoft Excel (Microsoft Corp., Redmond, WA). Concentration-response data was fitted to a Hill equation of the following form: RESPONSE=Base+[(Max−Base)/(1+(xhalf/x)^rate)] where Base is the response at low concentrations of test article, Max is the maximum response at high concentrations, xhalf is the EC50, or IC50, the concentration of test article producing either half-maximal activation or inhibition, and rate is the Hill coefficient. Nonlinear least squares fits were made assuming a simple binding model. Fits were weighted by the standard deviation. No assumptions about the fit parameters were made; the fit parameters were determined by the algorithm.

[2] = 7 days of infusion, cited from earlier work
[3] = read-out: Steady state current IC50

T1 sequence (Q13224 27-1484, other chains not shown): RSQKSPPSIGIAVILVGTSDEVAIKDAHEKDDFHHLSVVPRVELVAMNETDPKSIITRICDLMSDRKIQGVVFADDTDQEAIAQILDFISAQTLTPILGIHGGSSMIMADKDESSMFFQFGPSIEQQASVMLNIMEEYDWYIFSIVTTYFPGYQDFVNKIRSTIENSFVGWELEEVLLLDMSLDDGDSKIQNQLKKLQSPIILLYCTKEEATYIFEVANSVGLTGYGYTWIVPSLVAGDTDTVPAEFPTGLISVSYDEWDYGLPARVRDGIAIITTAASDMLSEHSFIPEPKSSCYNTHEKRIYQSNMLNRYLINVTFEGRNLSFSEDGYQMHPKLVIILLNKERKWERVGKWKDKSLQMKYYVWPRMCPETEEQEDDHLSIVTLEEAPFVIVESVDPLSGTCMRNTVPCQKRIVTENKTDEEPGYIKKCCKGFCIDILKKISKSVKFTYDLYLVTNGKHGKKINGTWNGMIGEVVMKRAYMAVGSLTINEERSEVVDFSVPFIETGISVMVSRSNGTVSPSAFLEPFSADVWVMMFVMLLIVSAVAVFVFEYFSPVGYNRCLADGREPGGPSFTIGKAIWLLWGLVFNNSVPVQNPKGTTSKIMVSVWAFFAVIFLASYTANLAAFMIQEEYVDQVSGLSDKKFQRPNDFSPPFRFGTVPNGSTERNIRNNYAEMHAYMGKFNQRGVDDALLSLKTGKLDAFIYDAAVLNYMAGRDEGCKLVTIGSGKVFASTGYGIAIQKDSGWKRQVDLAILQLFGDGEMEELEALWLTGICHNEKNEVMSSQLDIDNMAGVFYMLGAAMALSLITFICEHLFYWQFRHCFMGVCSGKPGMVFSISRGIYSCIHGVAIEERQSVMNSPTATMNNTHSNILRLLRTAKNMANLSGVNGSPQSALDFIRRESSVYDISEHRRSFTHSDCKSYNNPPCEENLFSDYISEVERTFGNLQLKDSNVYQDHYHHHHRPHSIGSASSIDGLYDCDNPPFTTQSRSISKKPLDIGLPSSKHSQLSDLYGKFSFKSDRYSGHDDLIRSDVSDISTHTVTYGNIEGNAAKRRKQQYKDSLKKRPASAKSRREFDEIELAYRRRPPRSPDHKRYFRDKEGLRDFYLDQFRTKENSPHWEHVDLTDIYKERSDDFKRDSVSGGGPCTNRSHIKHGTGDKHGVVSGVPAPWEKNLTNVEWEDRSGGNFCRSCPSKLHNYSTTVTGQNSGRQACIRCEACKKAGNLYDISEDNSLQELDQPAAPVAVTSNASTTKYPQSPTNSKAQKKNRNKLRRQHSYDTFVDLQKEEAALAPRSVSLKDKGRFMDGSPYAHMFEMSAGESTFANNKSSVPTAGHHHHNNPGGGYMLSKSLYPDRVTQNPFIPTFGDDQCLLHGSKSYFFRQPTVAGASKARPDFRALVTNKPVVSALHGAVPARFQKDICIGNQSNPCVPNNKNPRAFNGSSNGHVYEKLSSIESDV

SMILES | IC50 ([1]; read-out: Peak current IC50) [µM] | IC50 [1, 3] [µM] | Effect on NR1/NR2B glutamate receptors (in words) [1] | whole brain concentration higher than free concentration in serum ([2]; 20 mg/kg/day) [fold] | whole brain concentration higher than free concentration in serum ([2]; 100 mg/kg/day) [fold]
CC12CC3(C)CC(CN)(C1)CC(CO[N+](=O)[O-])(C2)C3 [Cmpd 1] | 4.59 | 2.62 | – | – | –
NCC1(c2cccc(O[N+](=O)[O-])c2)C2CC3CC(C2)CC1C3 (stereo not drawn) [Cmpd 2] | 73.2 | 47.4 | – | – | –
CCC(O[N+](=O)[O-])C12CC3(C)CC(C)(CC(CCN)(C3)C1)C2 (stereo not drawn) [Cmpd 3] | 8.01 | 5.08 | – | – | –
N[C@@H](CCC(=O)O)C(=O)O [Glutamate CRC, L-glutamate, reference compound] | – | – | stimulated the receptors | – | –
CC12CC3CC(C)(C1)CC(N)(C3)C2.Cl [Memantine-HCl, Memantine, reference compound] | – | – | produced inhibition of the receptors | 44 | –
NC12CC3CC(CC(C3)C1)C2 [amantadine] | – | – | – | – | 16

Continued, in another order:

IC50 ([1]; read-out: Peak current IC50) [µM] | IC50 [1, 3] [µM] | SMILES | Effect on NR1/NR2B glutamate receptors (in words) [1] | whole brain concentration higher than free concentration in serum ([2]; 20 mg/kg/day) [fold] | whole brain concentration higher than free concentration in serum ([2]; 100 mg/kg/day) [fold]
35.2 | 34.2 | NCC1(c2cccc(OCCCO[N+](=O)[O-])c2)C2CC3CC(C2)CC1C3 (stereo not drawn) [Cmpd 4] | – | – | –
11.2 | 7.18 | CC12CC3CC(CN)(C1)CC(O[N+](=O)[O-])(C3)C2 (stereo not drawn) [Cmpd 5] | – | – | –
25.9 | 21 | CCC12CC3CC(N)(C1)CC(CO[N+](=O)[O-])(C3)C2 (stereo not drawn) [NM-004, reference compound] | – | – | –
10.1 | 6.8 | CCC12CC3(N)CC(CC)(C1)CC(O[N+](=O)[O-])(C3)C2 [YQW-036, Nitrosynapsin, reference compound] | – | – | –

Source: patent publication US12071392B2, “Aminoadamantyl nitrate compounds and their use to treat CNS disorders” (Panorama Research, Inc., priority 2017, dated 2024)
